Measured values reported in the NIST ThermoML archive (doi:10.1021/je049595u).

Experiments:
[1] = molar heat capacity at saturation pressure; details: Liquid
[2] = Molar enthalpy of transition or fusion; details: Crystal

Cc1ccc2ccccc2n1 [2-methylquinoline]
Details | mass density [kg/m3] | molar heat capacity [J/K/mol] | vapor or sublimation pressure [kPa]
319.99 K, Liquid, Inclined piston gauge | – | – | 0.0315
329.98 K, Liquid, Inclined piston gauge | – | – | 0.063
339.99 K, Liquid, Inclined piston gauge | – | – | 0.1198
349.98 K, Liquid, Inclined piston gauge | – | – | 0.2174
364.98 K, Liquid, Inclined piston gauge | – | – | 0.4962
374.98 K, Liquid, Inclined piston gauge | – | – | 0.8233
384.97 K, Liquid, Inclined piston gauge | – | – | 1.323
394.24 K, Liquid, Twin ebulliometer | – | – | 2
394.97 K, Liquid, Inclined piston gauge | – | – | 2.066
404.97 K, Liquid, Inclined piston gauge | – | – | 3.141
411.02 K, Liquid, Twin ebulliometer | – | – | 4
418.53 K, Liquid, Twin ebulliometer | – | – | 5.333
429.68 K, Liquid, Twin ebulliometer | – | – | 7.999
438.05 K, Liquid, Twin ebulliometer | – | – | 10.67
444.81 K, Liquid, Twin ebulliometer | – | – | 13.33
451.84 K, Liquid, Twin ebulliometer | – | – | 16.66
457.68 K, Liquid, Twin ebulliometer | – | – | 19.93
465.36 K, Liquid, Twin ebulliometer | – | – | 25.02
473.1 K, Liquid, Twin ebulliometer | – | – | 31.18
480.89 K, Liquid, Twin ebulliometer | – | – | 38.56
488.72 K, Liquid, Twin ebulliometer | – | – | 47.38
496.61 K, Liquid, Twin ebulliometer | – | – | 57.82
504.55 K, Liquid, Twin ebulliometer | – | – | 70.12
512.53 K, Liquid, Twin ebulliometer | – | – | 84.53
520.57 K, Liquid, Twin ebulliometer | – | – | 101.33
528.66 K, Liquid, Twin ebulliometer | – | – | 120.79
536.8 K, Liquid, Twin ebulliometer | – | – | 143.25
544.98 K, Liquid, Twin ebulliometer | – | – | 169.02
553.22 K, Liquid, Twin ebulliometer | – | – | 198.49
561.5 K, Liquid, Twin ebulliometer | – | – | 232.02
569.83 K, Liquid, Twin ebulliometer | – | – | 270.02
762.9 K, Gas, Measured as part of TC determination by DSC | 163.3 | – | –
773.9 K, Liquid, Measured as part of TC determination by DSC | 410.8 | – | –
775.2 K, Gas, Measured as part of TC determination by DSC | 236.6 | – | –
775.9 K, Liquid, Measured as part of TC determination by DSC | 355.4 | – | –
777.9 K, Gas, Measured as part of TC determination by DSC | 292.9 | – | –
[1], 270.48 K, Vacuum adiabatic calorimetry | – | 212.97 | –
[1], 272.7 K, Vacuum adiabatic calorimetry | – | 213.77 | –
[1], 277.13 K, Vacuum adiabatic calorimetry | – | 215.45 | –
[1], 278.52 K, Vacuum adiabatic calorimetry | – | 216.02 | –
[1], 280 K, Vacuum adiabatic calorimetry | – | 216.58 | –
[1], 285.4 K, Vacuum adiabatic calorimetry | – | 218.72 | –
[1], 286.61 K, Vacuum adiabatic calorimetry | – | 219.19 | –
[1], 294.19 K, Vacuum adiabatic calorimetry | – | 222.16 | –
[1], 298.15 K, Vacuum adiabatic calorimetry | – | 223.78 | –
[1], 300 K, Vacuum adiabatic calorimetry | – | 224.52 | –
[1], 300.52 K, Vacuum adiabatic calorimetry | – | 224.72 | –
[1], 310.63 K, Vacuum adiabatic calorimetry | – | 228.85 | –
[1], 320 K, Vacuum adiabatic calorimetry | – | 232.73 | –
[1], 327.13 K, Vacuum adiabatic calorimetry | – | 235.7 | –
[1], 340 K, Vacuum adiabatic calorimetry | – | 241.04 | –
[1], 343.64 K, Vacuum adiabatic calorimetry | – | 242.54 | –
[1], 360 K, Vacuum adiabatic calorimetry | – | 249.4 | –
[1], 360.17 K, Vacuum adiabatic calorimetry | – | 249.47 | –
[1], 376.73 K, Vacuum adiabatic calorimetry | – | 256.39 | –
[1], 380 K, Vacuum adiabatic calorimetry | – | 257.77 | –
[1], 393.31 K, Vacuum adiabatic calorimetry | – | 263.29 | –
[1], 400 K, Vacuum adiabatic calorimetry | – | 266.05 | –
[1], 409.82 K, Vacuum adiabatic calorimetry | – | 270.1 | –
[1], 420 K, Vacuum adiabatic calorimetry | – | 274.27 | –
[1], 426.33 K, Vacuum adiabatic calorimetry | – | 276.86 | –
[1], 439.48 K, Vacuum adiabatic calorimetry | – | 282.23 | –
[1], 440 K, Vacuum adiabatic calorimetry | – | 282.48 | –

Details | Critical temperature [K] | mass density [kg/m3] | molar heat capacity [J/K/mol]
323.14 K, Liquid | – | 1035.2 | –
348.14 K, Liquid | – | 1015.9 | –
373.12 K, Liquid | – | 996.1 | –
398.12 K, Liquid | – | 973.9 | –
423.11 K, Liquid | – | 952.8 | –
448.11 K, Liquid | – | 931.9 | –
473.11 K, Liquid | – | 910.8 | –
498.11 K, Liquid | – | 888.8 | –
523.11 K, Liquid | – | 865.1 | –
Liquid, DTA | 778 | – | –
[1], 460 K | – | – | 291.16
[1], 480 K | – | – | 299.73
[1], 500 K | – | – | 308.3
[1], 520 K | – | – | 316.87
[1], 540 K | – | – | 325.39
[1], 560 K | – | – | 333.78
[1], 580 K | – | – | 341.97
[1], 600 K | – | – | 349.93
[1], 620 K | – | – | 357.61
[1], 640 K | – | – | 365.01
[1], 660 K | – | – | 372.23
[1], 680 K | – | – | 379.58
[1], 700 K | – | – | 387.75

Details | Molar enthalpy of transition or fusion [kcal/mol] | Triple point temperature [K]
Crystal | – | 270.48
[2] | 2.992 | –
